This note sets out measurements from patent publication US5162360A, “2-heteroatom containing urea and thiourea ACAT inhibitors” (Warner-Lambert Company, priority 1991, dated 1992).

In test [1] the target is T1, acyl-coenzyme A:cholesterol acyltransferase (ACAT) (Oryctolagus cuniculus, UniProt G1SFD9).
T1 sequence (G1SFD9 1-524): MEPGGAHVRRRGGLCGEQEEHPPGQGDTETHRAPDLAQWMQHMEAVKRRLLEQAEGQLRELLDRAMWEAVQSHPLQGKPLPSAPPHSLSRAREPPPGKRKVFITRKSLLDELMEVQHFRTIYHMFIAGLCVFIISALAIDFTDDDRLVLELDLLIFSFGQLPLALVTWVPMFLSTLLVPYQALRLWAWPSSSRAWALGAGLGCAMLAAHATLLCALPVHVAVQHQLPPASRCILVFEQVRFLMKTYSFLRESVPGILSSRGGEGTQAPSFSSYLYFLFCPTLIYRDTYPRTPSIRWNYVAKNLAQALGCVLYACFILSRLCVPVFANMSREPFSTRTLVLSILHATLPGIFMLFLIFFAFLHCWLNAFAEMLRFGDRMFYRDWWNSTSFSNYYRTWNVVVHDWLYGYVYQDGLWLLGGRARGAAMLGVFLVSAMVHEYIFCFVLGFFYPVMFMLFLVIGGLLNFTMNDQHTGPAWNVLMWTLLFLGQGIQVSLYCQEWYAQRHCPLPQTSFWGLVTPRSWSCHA
The test can be described thus: In vitro ACAT inhibition (radiolabeled cholesterol oleate formation from oleic acid, rabbit intestinal microsomes). It is filed as biochemical.
Experimental: The ability of representative compounds of the present invention to inhibit ACAT was measured using an in vitro test more fully described by F. J. Field and R. G. Salone, in Biochemica et Biophysica 712:557-570 (1982). The test assesses the ability of a test compound to inhibit the acylation of cholesterol by oleic acid by measuring the amount of radio-labeled cholesterol oleate formed from radiolabeled oleic acid in a tissue preparation containing rabbit intestinal microsomes.

Test [2] in a line: APCC in vivo screen: blood cholesterol in cholesterol-fed rats. As to conditions: Rattus norvegicus, 192 h, oral, chow diet with peanut oil 5.5%, cholesterol 1.5%, cholic acid 0.5%, blood sampled next day 8 AM, read-out: % Change (mg/dl). Also noted: species or system male Sprague-Dawley rats. The procedure: In one in vivo screen designated APCC, male Sprague-Dawley rats (200 to 225 g) were randomly divided into treatment groups and dosed orally at 4 PM with either vehicle (CMC/Tween) or suspensions of test compounds in vehicle. The control group received vehicle alone. […] The next day the animals were sacrificed at 8 AM to obtain blood samples for cholesterol analysis using standard procedures. Statistical differences between mean cholesterol values for the same vehicle were determined using analysis of variance followed by Fisher's least significant test. […] The figure in parenthesis indicates the number of milligrams/kilogram of test compound administered.

Usually IC50 stands for the concentration at which inhibition is half-maximal.

The compound `Cc1csc(NC(=O)Nc2c(C(C)C)cccc2C(C)C)n1` [Example 6, N-[2,6-bis(1-methylethyl)phenyl]-N'-(4-methyl-2-thiazolyl)urea] returned an IC50 in test [1] of more than 5000 nM.
In the case of `CCCCCCCCCCCCCCc1cc(NC(=O)Nc2c(C(C)C)cccc2C(C)C)no1` [Example 17, N-[2,6-bis(1-methylethyl)phenyl]-N'-(5-tetradecyl-3-isoxazolyl)urea], in test [2], the change in vivo at 3 mg/kg was -47% and the change in vivo at 30 mg/kg is -58%. Moreover, in test [1], the IC50 was found to be 110 nM.
In the case of `CCCCCCCCCCCCCCc1cc(NC(=O)Nc2c(C(C)C)cccc2C(C)C)on1` [Example 13, N-[2,6-bis(1-methylethyl)phenyl]-N'-(3-tetradecyl-5-isoxazolyl)urea], in test [2], the change in vivo at 3 mg/kg is -44% and the change in vivo at 30 mg/kg was -64%.
For `CCCCCc1sc(NC(=O)Nc2c(C(C)C)cccc2C(C)C)nc1C` [Example 3, N-[2,6-bis(1-methylethyl)phenyl]-N-(5-pentyl-4-methyl-2-thiazolyl)urea], in test [2], the change in vivo at 30 mg/kg is -17%. Besides, the 50% inhibitory concentration (IC50) in test [1] was 1900 nM.
Turning to `CCCCCCCCCCc1sc(NC(=O)Nc2c(C(C)C)cccc2C(C)C)nc1C` [Example 1, N-[2,6-bis(1-methylethyl)phenyl]-N'-(5-decyl-4-methyl-2-thiazolyl)urea], the change in vivo at 30 mg/kg in test [2] is -20%.
With `CCCCCCCCCCc1cc(NC(=O)Nc2c(C(C)C)cccc2C(C)C)no1` [Example 14], in test [2], the change in vivo at 3 mg/kg is -29% and the change in vivo at 30 mg/kg was -62%. Further, 28 nM corresponded to half-maximal inhibition in test [1] (IC50).
For the compound `CCCCCCCCCCCc1cc(NC(=O)Nc2c(C(C)C)cccc2C(C)C)on1` [Example 11, N-[2,6-bis(1-methylethyl)phenyl]-N'-(3-undecyl-5-isoxazolyl)urea], in test [2], the change in vivo at 3 mg/kg was -67% and the change in vivo at 30 mg/kg is -70%. For the same compound, the IC50 in test [1] is 20 nM.
With `CCCCCCCCCCCCc1cc(NC(=O)Nc2c(C(C)C)cccc2C(C)C)no1` [Example 9, N-[2,6-bis(1-methylethyl)phenyl]-N'-(5-dodecyl-3-isoxazolyl)urea], in test [2], the change in vivo at 3 mg/kg is -54% and the change in vivo at 30 mg/kg was -67%. In test [1], this compound yielded an IC50 of 27 nM.
For the compound `CCCCCCN(CCCCCC)Cc1cc(NC(=O)Nc2c(C(C)C)cccc2C(C)C)no1` [Example 20, N-[2,6-bis(1-methylethyl)phenyl]-N'-[5-[(dihexylamino)methyl]-3-isoxazolyl]urea], in test [2], the change in vivo at 30 mg/kg was -7%. In test [1], the IC50 came out at 2700 nM.
`CC(C)c1cccc(C(C)C)c1NC(=O)Nc1nc(-c2ccccc2)cs1` [Example 5, N-[2,6-bis(1-methylethyl)phenyl]-N'-(4-phenyl-2-thiazolyl)urea]: the IC50 in test [1] was more than 5000 nM.
Regarding `CCCCCCCCCCCCCc1cc(NC(=O)Nc2c(C(C)C)cccc2C(C)C)on1` [Example 12, N-[2,6-bis(1-methylethyl)phenyl]-N'-(3-tridecyl-5-isoxazolyl)urea], in test [2], the change in vivo at 3 mg/kg is -51% and the change in vivo at 30 mg/kg is -62%.
With `CCCCCCCCCCCc1cc(NC(=O)Nc2c(C(C)C)cccc2C(C)C)no1` [Example 15, N-[2,6-bis(1-methylethyl)phenyl]-N'-(5-undecyl-3-isoxazolyl)urea], in test [2], the change in vivo at 3 mg/kg is -51% and the change in vivo at 30 mg/kg was -61%. The compound further yielded an IC50 in test [1] of 27 nM.
Take `CCCCN(CCCC)Cc1cc(NC(=O)Nc2c(C(C)C)cccc2C(C)C)n(Cc2ccccc2)n1` [Example 22, N-[2,6-bis(1-methylethyl)phenyl]-N'-[3-[(dibutylamino)methyl]-1-(phenylmethyl)-1H-pyrazol-5-yl]urea]: in test [2], the change in vivo at 30 mg/kg is -9%. Further, inhibition in test [1] was half-maximal at 1900 nM (IC50).
Turning to `Cc1cc(NC(=O)Nc2c(C(C)C)cccc2C(C)C)no1` [Example 18, N-[2,6-bis(1 methylethyl)phenyl]-N'-(5-methyl-3-isoxazolyl)urea], the IC50 in test [1] is more than 5000 nM.
Take `CCCCCCCCCCCn1nccc1NC(=O)Nc1c(C(C)C)cccc1C(C)C` [Example 23, N-[2,6-bis(1-methylethyl)phenyl]-N'-(1-undecyl-1H-pyrazol-5-yl)urea]: in test [2], the change in vivo at 3 mg/kg turned out to be 5% and the change in vivo at 30 mg/kg was -64%. The same compound returned an IC50 in test [1] of 35 nM.
Turning to `CCCCCCCCCCCCc1cc(NC(=O)Nc2c(C(C)C)cccc2C(C)C)on1` [Example 8, N-[2,6-bis(1-methylethyl)phenyl]-N'-(3-dodecyl-5-isoxazolyl)urea], in test [2], the change in vivo at 3 mg/kg is -58% and the change in vivo at 30 mg/kg is -61%.
For the compound `CC(C)c1cccc(C(C)C)c1NC(=O)Nc1nc(C(C)(C)C)cs1` [Example 7, N-[2,6-bis(1-methylethyl)phenyl]-N'-(4-tert-butyl-2-thiazolyl)urea], the IC50 in test [1] is more than 1000 nM.
With `CCCCCCc1csc(NC(=O)Nc2c(C(C)C)cccc2C(C)C)n1` [Example 4, N-[2,6-bis(1-methylethyl)phenyl]-N'-(4-hexyl-2-thiazolyl)urea], the change in vivo at 30 mg/kg in test [2] was determined as 4%. The IC50 in test [1] worked out at 1600 nM.
For the compound `CCCCN(CCCC)Cc1cc(NC(=O)Nc2c(C(C)C)cccc2C(C)C)no1` [Example 19, N-[2,6-bis(1-methylethyl)phenyl]-N'-[5-[(dibutylamino)methyl]-3-isoxazolyl]urea], in test [2], the change in vivo at 3 mg/kg is -33% and the change in vivo at 30 mg/kg is -50%. The IC50 in test [1] was 510 nM.
Regarding `CCCCCCCCCCCCCc1cc(NC(=O)Nc2c(C(C)C)cccc2C(C)C)no1` [Example 16, N-[2,6-bis(1-methylethyl)phenyl]-N'-(5-tridecyl-3-isoxazolyl)urea], in test [2], the change in vivo at 3 mg/kg was -59% and the change in vivo at 30 mg/kg was -62%.
Take `CCCCCCCCCCCCc1cc(NC(=O)Nc2c(C(C)C)cccc2C(C)C)n(-c2ccccn2)n1` [Example 24, N-[2,6-bis(1-methylethyl)phenyl]-N'-[3-dodecyl-1-(2-pyridyl)-1H-pyrazol-5-yl]urea]: the change in vivo at 30 mg/kg in test [2] was determined as 9%. Moreover, in test [1], the IC50 was 100 nM.
Turning to `CCCCCCCCCCc1cc(NC(=O)Nc2c(C(C)C)cccc2C(C)C)on1` [Example 10, N-[2,6-bis(1-methylethyl)phenyl]-N'-(3-decyl-5-isoxazolyl)urea], in test [2], the change in vivo at 3 mg/kg was -61% and the change in vivo at 30 mg/kg is -69%.
